From patent US7208628B2, “Compositions and methods for the treatment of hepatitis C virus infection” (Kansas State University Research Foundation, priority 2002, dated 2007) come the findings set out here.

SMILES strings stand for the structures.

This assay deals with binding of HCV-E2 to CD81 on Molt4 T cells (Hepacivirus hominis (Hepatitis C virus), UniProt P27958). The assay can be described thus: HCV-E2/CD81 binding assay on Molt4 T cells, detection with anti-E2 mAb 6F6 and flow cytometry. As to conditions: for ability to inhibit the HCV-E2 binding to CD81, relative activity in words: structure-activity comparison of linker, side chain and ester against the valine benzyl ester I45DC AL-2-140. Also on record: species or system human. From the text:
Development of a Unique HCV-E2/CD81 Binding Assay. […] The binding of HCV-E2 to CD81 has been reported by several groups (see, e.g. Allander, T., et al., “Hepatitis C virus envelope protein E2 binds to CD81 of tamarins” Virology 277:358–367, 2000). Often those studies involved interactions of purified recombinant proteins. We sought to confirm published findings and to test the ability of HCV-E2 to bind to CD81 expressed on living T cells. Various concentrations of recombinant HCV-E2 (Ala 384 to Lys 715 of the HCV polyprotein produced in CHO cells; Austral Biologicals) was incubated with Molt4 T cells and binding of HCV-E2 to the cells was detected with the anti-E2 monoclonal antibody 6F6 (Austral Biologicals) followed by flow cytometry (FIG. 1). HCV-E2 binding to Molt4 T cells is concentration dependent and easily detectable at concentrations as low as 0.3 μg/mL. This binding assay differs from the assay published by Wünschmann in that the published assay used whole virus and not recombinant […] peptide. (Wünschmann, et al, “Characterization of Hepatitis C Virus (HCV) and HCV E2 Interactions with CD81 and the Low-Density Lipoprotein Receptor” J. Virology 74:10055–10062, 2000).
Effect of I45DCs on HCV-E2 binding to CD81 on T cells. […] Binding was measured by using the novel and sensitive method of the present invention for the detection of binding between the HCV envelope protein E2 and its cellular receptor CD81 on living human T cells. This experimental approach was employed in the evaluation of a series of newly synthesized I45DCs.
HCV-E2 was pre-incubated with or without […] of the indicated compound for 30 minutes at 37° C. prior to addition of HCV-E2 to Molt4 cells and detection as described above. […] The approximate EC50 of 19 was determined by conducting the same type of experiment in the presence of a 1:2 titration of 19 from […] (FIG. 5).
(A flow cytometer gives signals particle by particle.)

Chain of binding of HCV-E2 to CD81 on Molt4 T cells (P27958 384-715): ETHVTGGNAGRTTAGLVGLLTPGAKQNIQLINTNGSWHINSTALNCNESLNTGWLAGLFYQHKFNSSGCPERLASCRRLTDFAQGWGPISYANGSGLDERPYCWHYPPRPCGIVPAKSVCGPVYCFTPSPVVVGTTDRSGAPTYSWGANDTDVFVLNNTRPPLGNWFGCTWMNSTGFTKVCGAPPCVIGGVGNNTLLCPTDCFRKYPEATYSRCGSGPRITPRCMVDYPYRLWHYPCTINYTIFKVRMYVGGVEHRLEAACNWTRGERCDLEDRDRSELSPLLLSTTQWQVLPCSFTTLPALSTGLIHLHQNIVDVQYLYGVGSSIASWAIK
Chain of binding of HCV-E2 to CD81 on Molt4 T cells (P60033 whole entry, further chain): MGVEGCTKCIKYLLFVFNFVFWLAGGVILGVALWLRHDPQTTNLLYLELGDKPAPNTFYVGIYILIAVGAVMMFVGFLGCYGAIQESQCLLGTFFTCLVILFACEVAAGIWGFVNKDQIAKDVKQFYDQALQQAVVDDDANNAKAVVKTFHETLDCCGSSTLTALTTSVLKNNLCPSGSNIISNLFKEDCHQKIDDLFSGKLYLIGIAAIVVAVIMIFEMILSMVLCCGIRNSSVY

A word on the IC50: it is the point on the concentration scale where inhibition reaches its midpoint. For the compound `CCN(CCN(CC)C(=O)c1nc[nH]c1C(=O)N[C@H](C(=O)OCc1ccccc1)C(C)C)C(=O)c1nc[nH]c1C(=O)N[C@H](C(=O)OCc1ccccc1)C(C)C` [Compound 19], the “ability to inhibit the HCV-E2 binding to CD81, relative activity in words” value is reported as “most active compound to date”. In addition, the IC50 (CD81 expressed on human T cells, 1:2 titration of compound, FIG. 5, read-out: approximate IC50 value for blocking binding of HCV-E2 to CD81) is ~45 µM. Also, the “bioactivity in the HCV-E2 binding assay” value (HCV-E2 pre-incubated with 500 mM compound for 30 minutes at 37° C. before addition to Molt4 cells) was “bioactivity in the sub-millimolar range”. Moreover, the “ability to inhibit the HCV-E2 binding to CD81, relative activity in words” value (listed as AL-2-140) was “most active”.
